In patent US9670242B2, “Tetracyclic anthraquinone derivatives” (Tianjin Hemay Bio-Tech Co., Ltd, priority 2012, dated 2017):
Structures can show the parent of a compound that is named as a salt.

Key:
A375 cells = assay: A375 cell growth inhibition test (MTT assay); format: cell-based, human; details: 72 h
Experimental: A375 Cell Growth Inhibition Test (MTT Assay)
(§1) II. Reagents and Consumable Materials
Culture medium: 90% DMEM+10% FBS (fetal calf serum); Pancreatin (0.25% (w/v) solution was formulated with PBS, 0.53 mM of EDTA was added in the formulation); PBS; 96-well culture plate.
(§2) 1. A plate (10 cm) of cells in logarithmic growth phase that were normally cultured was collected;
(§3) 2. The culture solution was sucked out. The plate was washed with 5 mL of PBS once or twice;
(§4) 3. PBS was sucked out. 1.5 mL of 0.25% pancreatin was added to the plate to infiltrate the cells for 1 min;
(§5) 4. The culture plate was placed in an incubator. Digestion was carried out for about 5 min at 37° C.;
5. 3 mL of complete culture solution was added to the culture plate to stop the digestion. The cells were carefully scoured with micropipette (1 ml) to give a uniform cell suspension. The suspension was implanted into a 96-well cell culture disc by 3000 cells/100 μL per well. The culture plate was incubated overnight under 5% CO2 at 37° C. In day 2, 100 μL of culture solution comprising a compound was added in each well. The plate was further incubated for 72 h under 5% CO2 at 37° C.;
(§6) 6. The culture solution was sucked out;
(§7) 7. 100 μL of serum-free culture solution containing 0.5 mg/mL MTT was added in each well. The plate was incubated for 3 h;
(§8) 8. The culture solution was carefully sucked out;
(§9) 9. 100 μL of DMSO was added in each well and vibrated to dissolve;
(§10) 10. OD values were determined at 490 nM.
(§11) IV. Results and Treatments
(§12) 1. Calculation of Relative Inhibition Ratio The inhibition ratio of a compound on cell growth=(PC−n)/(PC−NC)×100%
(§13) PC: OD values of cells after normal growth in control wells without a compound;
(§14) n: OD values of cells after growth in test wells with a compound;
(§15) NC: Background OD values of blank wells without a compound and cells.

SK-OV-3 cells = assay: SK-OV-3 cell growth inhibition test (MTT assay); format: cell-based, human; details: growth inhibition at 667 nM, 69 h
Experimental: SK-OV-3 Cell Growth Inhibition Test (MTT Assay)
Cell strains: SK-OV-3 (human ovarian cancer cell strains); MTT; antitumor compounds; DMSO.
as §1
Culture medium: 90% McCoy's 5A+10% FBS; Pancreatin (0.25% (w/v) solution was formulated with PBS, 0.53 mM of EDTA was added in the formulation); PBS; 96-well culture plate.
as §2, §3
(§16) 3. PBS was sucked out. 1.5 mL of 0.25% pancreatin was added to infiltrate the cells;
4. The pancreatin was sucked out. The culture plate was placed in an incubator. Digestion was carried out for about 5 min at 37° C.;
5. 4.5 mL of complete culture solution was added to the culture plate to stop the digestion. The cells were carefully scoured with micropipette (1 ml) to give a uniform cell suspension. The suspension was implanted into a 96-well cell culture disc by 4000 cells/100 μL per well. The culture plate was incubated overnight under 5% CO2 at 37° C. In day 2, 100 μL of culture solution comprising a compound was added in each well. The plate was further incubated for 69 h under 5% CO2 at 37° C.;
as §6, §7, §8, §9, §10, §11, §12, §13, §14, §15

BxPc-3 cells = assay: BxPc-3 cell growth inhibition test (MTT assay); format: cell-based, human; details: growth inhibition at 2000 nM, 70 h
Experimental: BxPc-3 Cell Growth Inhibition Test (MTT Assay)
Cell strains: BxPC-3 (human pancreatic cancer cell strains); MTT; antitumor compounds; DMSO.
as §1
(§17) Culture medium: 90% RPMI-1640+10% FBS; Pancreatin (0.25% (w/v) solution was formulated with PBS, 0.53 mM of EDTA was added in the formulation); PBS; 96-well culture plate.
as §2, §3, §16
4. The culture plate was placed in an incubator. Digestion was carried out for about 8 min at 37° C.;
5. 4.5 mL of complete culture solution was added to the culture plate to stop the digestion. The cells were carefully scoured with micropipette (1 ml) to give a uniform cell suspension. The suspension was implanted into a 96-well cell culture disc by 5000 cells/100 μL per well. The culture plate was incubated overnight under 5% CO2 at 37° C. In day 2, 100 μL of culture solution comprising a compound was added in each well. The plate was further incubated for 70 h under 5% CO2 at 37° C.;
as §6, §7, §8
(§18) 9. 100 μL of DMSO was added into each well and vibrated to dissolve;
as §10, §11, §12, §13, §14, §15

NCI-H446 cells = assay: NCI-H446 cell growth inhibition test (MTT assay); format: cell-based, human; details: growth inhibition at 222 nM, 70 h
Experimental: NCI-H446 Cell Growth Inhibition Test (MTT Assay)
Cell strains: NCI-H446 (human small cell lung cancer cell strains); MTT; antitumor compounds; DMSO.
as §1, §17, §2, §3, §16
4. The culture plate was placed in an incubator. Digestion was carried out for about 3 min at 37° C.;
5. 3 mL of complete culture solution was added to the culture plate to stop the digestion. The cells were carefully scoured with micropipette (1 ml) to give a uniform cell suspension. The suspension was implanted into a 96-well cell culture disc by 4000 cells/100 μL per well. The culture plate was incubated overnight under 5% CO2 at 37° C. In day 2, 100 μL of culture solution comprising a compound was added in each well. The plate was further incubated for 70 h under 5% CO2 at 37° C.;
as §6, §7, §8, §18, §10, §11, §12, §13, §14, §15

MDA-MB-453 cells = assay: MDA-MB-453 cell growth inhibition test (SRB assay); format: cell-based, human; details: growth inhibition at 2000 nM, 69.5 h
Experimental: MDA-MB-453 Cell Growth Inhibition Test (SRB Assay)
Cell strains: MDA-MB-453 (human breast cancer cell strains); SRB: 0.4% (w/v) working solution was formulated with 1% glacial acetic acid, reserved at 4° C.; antitumor compounds; DMSO.
as §1
Culture medium: 90% L15+10% FBS; pancreatin (0.25% (w/v) solution was formulated with PBS, 0.53 mM of EDTA was added in the formulation); PBS; 96-well culture plate.
as §2, §3
(§19) 3. 1.5 mL of 0.25% pancreatin was added to the plate to infiltrate the cells;
(§20) 4. The pancreatin was sucked out. The culture plate was placed in an incubator. Digestion was carried out for about 3 min at 37° C.;
5. 4 mL of complete culture solution was added to the culture plate to stop the digestion. The cells were carefully scoured with micropipette (1 ml) to give a uniform single cell suspension. The suspension was implanted into a 96-well cell culture plate by 7000 cells/100 μL per well. The culture plate was incubated overnight under 5% CO2 at 37° C. In day 2, 100 μL of culture solution comprising a compound was added in each well.
The plate was further incubated for 69.5 h under 5% CO2 at 37° C.;
(§21) 6. The culture solution was sucked out. 100 uL of TCA fixed cells which were diluted to 10% were added to each well. The plate was kept in a refrigerator for 1 h at 4° C.
(§22) 7. TCA stationary liquid was sucked out. Each well was washed with 150 μL of ddH2O five times;
(§23) 8. After the stationary liquid was cleansed, the plate was dried in the air at the room temperature;
(§24) 9. 60 μL of SRB staining solution was added in each well. The well was stained for 15 min at the room temperature;
(§25) 10. The SRB staining solution was sucked out. Each well was washed with 150 μL of 1% glacial acetic acid five times;
(§26) 11. After the SRB staining solution was cleansed, the plate was dried in the air at the room temperature;
(§27) 12. 100 μL of 10 mM Tris was added in each well. The plate was vibrated to dissolve out SRB;
(§28) 13. OD values were determined at 570 nM.
as §11, §12, §13, §14, §15

22Rv1 cells = assay: 22Rv1 cell growth inhibition test (SRB assay); format: cell-based, human; details: growth inhibition at 222 nM, 73 h
Experimental: 22Rv1 Cell Growth Inhibition Test (SRB Assay)
Cell strains: 22Rv1 (human prostate cancer cell strains); SRB: 0.4% (w/v) working solution was formulated with 1% glacial acetic acid, reserved at 4° C.; antitumor compounds; DMSO.
as §1, §17, §2, §3, §19, §20
5. 4 mL of complete culture solution was added to the culture plate to stop the digestion. The cells were carefully scoured with micropipette (1 ml) to give a uniform single cell suspension. The suspension was implanted into a 96-well cell culture plate by 7000 cells/100 μL per well. The culture plate was incubated overnight under 5% CO2 at 37° C. In day 2, 100 μL of culture solution comprising a compound was added in each well. The plate was further incubated for 73 h under 5% CO2 at 37° C.;
as §21, §22, §23, §24, §25, §26, §27, §28, §11, §12, §13, §14, §15

[1] = Solubility of the compound in water; format: physicochemical
A431 cells = assay: A431 cell growth inhibition test (MTT assay); format: cell-based, human; details: 72 h
Experimental: A431 Cell Growth Inhibition Test (MTT Assay)
as §1
Culture medium: 45% DMEM+45% F12+10% FBS (fetal calf serum); Pancreatin (0.25% (w/v) solution was formulated with PBS, 0.53 mM of EDTA was added in the formulation); PBS; 96-well culture plate.
as §2, §3, §4, §5
5. 3 mL of complete culture solution was added to the culture plate to stop the digestion. The cells were carefully scoured with micropipette (1 mL) to give a uniform cell suspension. The suspension was implanted into a 96-well cell culture disc by 2500 cells/100 μL per well. The culture plate was incubated overnight under 5% CO2 at 37° C. In day 2, 100 μL of culture solution comprising a compound was added in each well. The plate was further incubated for 72 h under 5% CO2 at 37° C.;
as §6, §7, §8, §9, §10, §11, §12, §13, §14, §15

| SMILES | IC50 (A375 cells; hydrochloride) [nM] | Inhibition Ratio (%) (SK-OV-3 cells) | Inhibition Ratio (%) (BxPc-3 cells) | Inhibition Ratio (%) (NCI-H446 cells) | Inhibition Ratio (%) (MDA-MB-453 cells) | Inhibition Ratio (%) (22Rv1 cells) | solubility of the compound in water [1] | IC50 (A375 cells) [nM] | IC50 (A431 cells) [nM] |
| --- | --- | --- | --- | --- | --- | --- | --- | --- | --- |
| COc1cccc2c1C(=O)c1c(O)c3c(c(O)c1C2=O)CC(O)(C(=O)COC(=O)CCC(=O)NCCN1CCOCC1)CC3O[C@H]1C[C@H](n2cccc2)[C@H](O)[C@H](C)O1 (stereo partly drawn) [Example 99, 10-((3′-(pyrrol-1-yl)-2′,3′,6′-trideoxy-alphal-l-lyxo-hexylpyranyl)oxy)-7,8,9,10-tetrahydro-6,8,11-trihydroxy-13-oxo-14-(4-((2-(morpholin-1-yl)ethyl)amino)-4-oxo-butyrato)-1-methoxy-5,12-naphthalenedione hydrochloride] | 35 |  |  |  |  |  |  |  |  |
| CC(=O)O.COc1cccc2c1C(=O)c1c(O)c3c(c(O)c1C2=O)CC(O)(C(=O)COC(=O)CCC(=O)NCCOCCN(C)C)CC3O[C@H]1C[C@H](n2cccc2)[C@H](O)[C@H](C)O1 (stereo partly drawn) [Example 76, 10-((3′-(pyrrol-1-yl)-2′,3′,6′-trideoxy-alphal-l-lyxo-hexylpyranyl)oxy)-7,8,9,10-tetrahydro-6,8,11-trihydroxy-13-oxo-14-(4-(2-(2-(dimethylamino)ethoxy)ethylamino)-4-oxo-butyrato)-1-methoxy-5,12-naphthalenedione acetate] |  | 46.4 | 77.1 | 46 | 62.7 | 49.2 | more than 9 mg/ml |  |  |
| CC(=O)O.COc1cccc2c1C(=O)c1c(O)c3c(c(O)c1C2=O)CC(O)(C(=O)COC(=O)CCC(=O)N1CCN(CCO)CC1)CC3O[C@H]1C[C@H](n2cccc2)[C@H](O)[C@H](C)O1 (stereo partly drawn) [Example 77, 10-((3′-(pyrrol-1-yl)-2′,3′,6′-trideoxy-alphal-l-lyxo-hexylpyranyl)oxy)-7,8,9,10-tetrahydro-6,8,11-trihydroxy-13-oxo-14-(4-((4-(2-hydroxy)ethyl)piperazin-1-yl)-4-oxo-butyrato)-1-methoxy-5,12-naphthalenedione acetate] |  | 60.4 | 83.3 | 59.1 | 79.7 | 57.9 | more than 10.6 mg/ml |  |  |
| COc1cccc2c1C(=O)c1c(O)c3c(c(O)c1C2=O)CC(O)(C(=O)COC(=O)CCC(=O)NCCOCCN(C)C)CC3OC1CC(n2cccc2)C(O)C(C)O1 (stereo not shown) [Example 6] |  |  |  |  |  |  |  | 67 |  |
| COc1cccc2c1C(=O)c1c(O)c3c(c(O)c1C2=O)CC(O)(C(=O)COC(=O)CCCC(=O)NCCN1CCOCC1)CC3OC1CC(n2cccc2)C(O)C(C)O1 (stereo not shown) [Example 97] |  |  |  |  |  |  |  | 28 | 45 |
